Test results: ChEMBL document CHEMBL1201862, “PubChem BioAssay data set” (2004)
Activity calls are given as the source filed them.

Tests used:
Danio rerio = test: In Vivo Angiogenesis Dose-Response Confirmation. [Related pubchem assays: 732 (Assay preceding this confirmatory assay.)]; assay type: functional, organism-based
[1] = ATP-based viability loss in HEK293T cells – cell-based, CellTiter-Glo luminescence, dry powder, set 2, cytotoxicity control, dose response (AID 720595); assay type: functional; conditions: HEK293
[2] = ATP-based viability loss in HeLa cells – cell-based, CellTiter-Glo luminescence, dry powder, set 2, cytotoxicity control, dose response (AID 720593); assay type: functional
[3] = Potency on glucagon-like peptide 1 release, dose-response in NCI-H716 cell line, half maximal inhibitory concentration (AID 1117344); assay type: functional, cell-based
[4] = glucagon-like peptide-1 release potency in STC-1, concentration-response, half-maximal inhibitory concentration in the STC-1 line (AID 1117345); assay type: functional, cell-based
[5] = cytotoxicity toward HCT116 cells – cell-based, CellTiter-Glo luminescence, IC50, dose response (AID 1117332); assay type: functional; conditions: HCT-116
[6] = Reduced DLD-1 viability, concentration-response, CellTiter-Glo luminescence (AID 1117352); assay type: functional
[7] = HCT116 cell viability decrease, GSK3B pretreatment – CellTiter-Glo, IC50, dose response (AID 1117339); assay type: functional; conditions: HCT-116
[8] = CellTiter-Glo luminescence survival assay, SW480 colon tumor line, concentration-response curve, half-maximal inhibitory concentration (AID 1117338); assay type: functional
[9] = cytotoxicity toward HT-29 cells – cell-based, CellTiter-Glo luminescence, IC50, dose response (AID 1117330); assay type: functional
[10] = SNU-C1 cell viability reduction, dose response, CellTiter-Glo luminescence (AID 1117323); assay type: functional, cell-based
[11] = RKO cell viability reduction, dose response, CellTiter-Glo luminescence (AID 1117322); assay type: functional
[12] = cytotoxicity toward Colo320 cells – cell-based, CellTiter-Glo luminescence, IC50, dose response (AID 1117334); assay type: functional; conditions: COLO 320
[13] = Luminescent dose response cell-based high throughput screening assay for inhibitors of the Janus kinase 2 mutant JAK2V617F. [Related pubchem assays: 1446 (Primary screen.), 1521 (Confirmation assay.), 1486 (Counter screen.)]; assay type: functional
BJ [14] = test: growth inhibition of engineered Ras-driven BJ cells – cell-based, alamar blue fluorescence, cherrypicked samples, dose response (AID 2631); assay type: functional; conditions: Homo sapiens;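 note: confirmatory dose-response assay in RAS-dependent BJ fibroblasts engineered with TERT, LT and ST, with cytotoxicity read by fluorescence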
BJ [15] = test: BJ-TERT fibroblast viability loss – cell-based, RAS-independent, luminescence, dose response (AID 1933); assay type: functional; conditions: Homo sapiens
BJ [16] = test: BJ-TERT-LT-ST fibroblast viability loss – cell-based, RAS-independent, luminescence, dose response (AID 1935); assay type: functional; conditions: Homo sapiens;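 note: BJ fibroblasts immortalized with TERT plus LT and ST oncogenes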
BJ [17] = test: cells; assay type: functional, cell-based; conditions: Homo sapiens
[18] = DRD fibroblast viability loss – cell-based, non-viral oncogenic, luminescence, dose response (AID 1934); assay type: functional; conditions: Homo sapiens
[19] = viability loss in human Jurkat cells – cell-based, luminescence, cytotoxicity control for P. falciparum gametocyte viability project, dose response (AID 1117277); assay type: functional;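 note: potency reflects loss of cellular ATP meaning fewer viable cells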
[20] = viability inhibitors of stage V gametocytes – luminescence, dose response (AID 1117278); assay type: functional, cell-based;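 note: gametocytes exposed to compound for 24 hours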
[21] = target: Photoreceptor-specific nuclear receptor (Homo sapiens, UniProt Q9Y5X4); test: ligands suppressing NR2E3 nuclear receptor activity – biochemical, TR-FRET, dose response (AID 463256); assay type: functional
Photoreceptor-specific nuclear receptor, sequence (Q9Y5X4 whole entry): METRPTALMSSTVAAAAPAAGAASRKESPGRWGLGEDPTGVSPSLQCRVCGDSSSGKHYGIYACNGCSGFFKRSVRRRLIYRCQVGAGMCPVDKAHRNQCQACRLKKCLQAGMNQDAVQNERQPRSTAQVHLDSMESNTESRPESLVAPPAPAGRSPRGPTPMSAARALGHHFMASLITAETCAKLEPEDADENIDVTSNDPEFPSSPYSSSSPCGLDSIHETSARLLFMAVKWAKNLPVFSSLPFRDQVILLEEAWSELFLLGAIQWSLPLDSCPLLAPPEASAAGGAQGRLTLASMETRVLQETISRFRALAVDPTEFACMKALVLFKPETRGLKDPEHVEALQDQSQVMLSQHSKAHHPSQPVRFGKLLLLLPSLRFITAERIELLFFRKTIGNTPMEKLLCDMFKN

[22] = target: Peroxisome proliferator-activated receptor gamma/Nuclear receptor corepressor 2 (Homo sapiens, UniProt P37231+Q9Y618); test: Counterscreen for NR2E3 inverse agonists: TR-FRET-based biochemical high throughput dose response assay to identify inverse agonists of the interaction between peroxisome proliferator-activated receptor gamma (PPARg) and nuclear receptor co-repressor 2 (NCOR2).; assay type: functional
Peroxisome proliferator-activated receptor gamma/Nuclear receptor corepressor 2, sequence (P37231 whole entry): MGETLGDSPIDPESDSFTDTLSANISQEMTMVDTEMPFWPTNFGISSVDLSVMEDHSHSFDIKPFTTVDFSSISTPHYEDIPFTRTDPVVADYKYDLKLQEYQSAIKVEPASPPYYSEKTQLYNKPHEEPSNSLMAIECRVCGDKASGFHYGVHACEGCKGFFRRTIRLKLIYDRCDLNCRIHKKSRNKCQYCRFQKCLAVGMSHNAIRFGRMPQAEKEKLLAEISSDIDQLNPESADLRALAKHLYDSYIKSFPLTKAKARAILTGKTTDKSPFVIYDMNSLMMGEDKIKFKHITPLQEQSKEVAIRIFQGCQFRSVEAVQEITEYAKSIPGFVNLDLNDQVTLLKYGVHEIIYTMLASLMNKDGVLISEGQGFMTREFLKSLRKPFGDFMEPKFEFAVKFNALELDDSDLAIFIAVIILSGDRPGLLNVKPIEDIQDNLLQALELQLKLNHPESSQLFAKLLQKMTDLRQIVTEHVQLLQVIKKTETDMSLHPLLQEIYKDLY
Peroxisome proliferator-activated receptor gamma/Nuclear receptor corepressor 2, sequence (Q9Y618 whole entry): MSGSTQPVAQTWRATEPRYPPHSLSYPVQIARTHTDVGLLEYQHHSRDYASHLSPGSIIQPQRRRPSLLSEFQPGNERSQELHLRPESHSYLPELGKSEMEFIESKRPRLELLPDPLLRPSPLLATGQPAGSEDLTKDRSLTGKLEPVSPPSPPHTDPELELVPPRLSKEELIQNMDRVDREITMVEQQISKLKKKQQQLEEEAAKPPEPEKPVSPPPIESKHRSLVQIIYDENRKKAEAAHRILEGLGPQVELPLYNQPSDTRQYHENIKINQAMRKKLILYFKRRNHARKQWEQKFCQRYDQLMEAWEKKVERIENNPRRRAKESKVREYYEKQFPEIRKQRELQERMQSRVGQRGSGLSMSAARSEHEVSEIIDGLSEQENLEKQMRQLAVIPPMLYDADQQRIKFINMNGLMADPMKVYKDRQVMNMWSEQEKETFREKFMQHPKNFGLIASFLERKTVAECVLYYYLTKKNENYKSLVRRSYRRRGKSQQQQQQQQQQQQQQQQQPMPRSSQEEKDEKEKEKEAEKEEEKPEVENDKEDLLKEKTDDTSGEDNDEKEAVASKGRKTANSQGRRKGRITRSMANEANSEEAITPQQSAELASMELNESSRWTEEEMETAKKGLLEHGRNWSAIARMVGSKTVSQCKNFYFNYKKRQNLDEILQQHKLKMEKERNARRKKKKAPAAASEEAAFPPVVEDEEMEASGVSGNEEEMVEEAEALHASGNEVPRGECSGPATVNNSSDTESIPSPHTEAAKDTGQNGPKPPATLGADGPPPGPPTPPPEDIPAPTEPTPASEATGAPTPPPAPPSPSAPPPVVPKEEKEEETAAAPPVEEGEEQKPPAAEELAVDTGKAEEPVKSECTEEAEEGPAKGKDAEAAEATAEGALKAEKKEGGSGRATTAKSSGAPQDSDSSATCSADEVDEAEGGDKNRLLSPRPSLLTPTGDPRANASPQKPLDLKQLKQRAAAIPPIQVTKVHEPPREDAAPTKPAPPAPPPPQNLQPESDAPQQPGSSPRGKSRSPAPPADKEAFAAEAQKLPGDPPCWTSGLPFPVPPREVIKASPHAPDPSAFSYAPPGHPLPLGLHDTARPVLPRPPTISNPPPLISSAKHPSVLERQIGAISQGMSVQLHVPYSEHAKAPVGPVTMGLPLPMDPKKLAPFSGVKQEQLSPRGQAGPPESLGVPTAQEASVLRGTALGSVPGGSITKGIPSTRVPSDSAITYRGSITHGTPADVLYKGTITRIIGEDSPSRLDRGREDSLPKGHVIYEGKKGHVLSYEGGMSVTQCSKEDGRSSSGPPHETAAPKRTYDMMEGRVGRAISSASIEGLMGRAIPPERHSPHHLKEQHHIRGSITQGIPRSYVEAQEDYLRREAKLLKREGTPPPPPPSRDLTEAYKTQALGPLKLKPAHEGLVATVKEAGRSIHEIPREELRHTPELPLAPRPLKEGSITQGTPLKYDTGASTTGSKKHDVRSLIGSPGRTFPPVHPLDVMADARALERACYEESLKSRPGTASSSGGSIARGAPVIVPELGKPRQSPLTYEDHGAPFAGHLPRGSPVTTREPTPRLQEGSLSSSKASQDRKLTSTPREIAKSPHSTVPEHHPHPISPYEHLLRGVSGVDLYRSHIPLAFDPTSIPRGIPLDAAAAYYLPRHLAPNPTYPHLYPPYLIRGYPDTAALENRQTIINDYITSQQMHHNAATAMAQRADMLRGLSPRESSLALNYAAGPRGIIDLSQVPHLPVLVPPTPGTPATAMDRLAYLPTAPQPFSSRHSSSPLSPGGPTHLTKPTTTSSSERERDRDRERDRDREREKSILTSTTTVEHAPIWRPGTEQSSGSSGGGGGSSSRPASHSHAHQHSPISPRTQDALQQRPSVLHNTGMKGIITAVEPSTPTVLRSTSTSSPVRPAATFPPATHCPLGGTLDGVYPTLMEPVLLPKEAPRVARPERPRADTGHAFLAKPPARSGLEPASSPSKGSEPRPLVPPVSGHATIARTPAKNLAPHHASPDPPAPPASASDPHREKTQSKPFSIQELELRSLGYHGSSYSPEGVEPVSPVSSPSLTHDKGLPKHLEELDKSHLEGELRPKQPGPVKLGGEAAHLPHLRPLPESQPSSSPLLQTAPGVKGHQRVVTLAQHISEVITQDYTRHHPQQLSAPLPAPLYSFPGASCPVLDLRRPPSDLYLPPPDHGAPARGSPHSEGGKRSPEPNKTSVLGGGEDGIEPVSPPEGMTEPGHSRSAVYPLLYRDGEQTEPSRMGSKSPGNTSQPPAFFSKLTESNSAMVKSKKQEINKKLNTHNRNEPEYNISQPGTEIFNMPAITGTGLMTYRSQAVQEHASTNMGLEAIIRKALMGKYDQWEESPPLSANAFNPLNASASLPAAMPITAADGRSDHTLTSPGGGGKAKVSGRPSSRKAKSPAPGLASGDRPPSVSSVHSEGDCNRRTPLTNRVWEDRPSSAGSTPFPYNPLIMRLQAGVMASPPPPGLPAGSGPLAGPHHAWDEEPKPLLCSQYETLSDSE

[23] = target: T1, Low molecular weight phosphotyrosine protein phosphatase (Homo sapiens, UniProt P24666); assay type: functional; conditions: read-out: IC50_Mean;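 note: Dose-response confirmation assay measuring inhibition of LMPTP enzyme activity by fluorescence intensity read-out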
T1 sequence (P24666 whole entry): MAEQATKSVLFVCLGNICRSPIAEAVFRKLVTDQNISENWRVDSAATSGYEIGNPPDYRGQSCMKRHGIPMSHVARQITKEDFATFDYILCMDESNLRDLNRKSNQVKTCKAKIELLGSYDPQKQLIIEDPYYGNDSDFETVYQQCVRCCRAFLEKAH

[24] = IC50 of Artemis nuclease activity blockers – biochemical, fluorescence intensity, dose response (AID 720701); assay type: functional;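 note: Artemis endonuclease enzyme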

With `O=C1C(c2c(O)[nH]c3ccc(F)cc23)=Nc2ccccc21` the IC50 (Danio rerio) was 2.17 µM (active).
With `CCCCC(=O)NC(c1ccco1)c1ccc2cccnc2c1O` (stereo not given) the AC50 [1] was 3.78 µM (active) and the AC50 [2] was 28.4 µM (active).
In the case of `CN(C)[C@@H]1C(O)=C(C(=O)NCN2CCCC2)C(=O)[C@@]2(O)C(O)=C3C(=O)c4c(O)cccc4[C@@](C)(O)C3C[C@@H]12` (stereo not given in full), the IC50 [3] is reported as > 40 µM (inactive) and the IC50 [4] is reported as > 40 µM (inactive).
For `CNC(=O)Oc1cccc2ccccc12` [CARBARIL], the IC50 [5] was > 20 µM (inactive), the IC50 [6] was > 20 µM (inactive) and the IC50 [7] was > 20 µM (inactive). The IC50 [8] was > 20 µM (inactive), the IC50 [9] was > 20 µM (inactive) and the IC50 [10] was > 20 µM (inactive). For the same compound, the IC50 [11] was > 20 µM (inactive) and the IC50 [12] was > 20 µM (inactive).
With `CCOc1ccc(Nc2nc(N)nc(CCl)n2)cc1` the IC50 [13] was 0.597 µM (active), the EC50 (BJ [14]) was 5.73 µM (active) and the EC50 (BJ [15]) was 0.839 µM (inconclusive). The EC50 (BJ [16]) was 10.8 µM (inconclusive), the EC50 (BJ [17]) was 1.8 µM (active) and the EC50 [18] was 0.694 µM (active).
For `O=C(O)c1ccc(-c2ccccc2)nc1O`, the IC50 [19] was > 83.2 µM (inactive) and the IC50 [20] was > 109 µM (inactive).
In the case of `Cc1cc(C)c2c(C)c(C(=O)NCc3ccc(S(N)(=O)=O)cc3)oc2c1`, the IC50 [21] is reported as 4.06 µM (active) and the IC50 [22] is reported as 3.99 µM (active).
For `O=C(Cc1cn2ccsc2n1)Nc1nc2c(s1)CN(Cc1ccccc1)CC2`, the IC50 [23] was 44.6 µM (inactive) and the IC50 [24] was > 20 µM (inactive).
